Measurements as given in patent US3989746A, “Substituted naphthyl anthranilic acids” (Ikeda Mohando Co., Ltd., priority 1972, dated 1976).

What was measured:
male mice = test: in vivo; conditions: 7 days
Experimental: (§1) With respect to the foregoing test compounds, the acute toxicity was examined by employing mice according to the following method.
(§2) Groups of male mice of the dd type having a body weight of 18 to 22 g, each, group consisting of 5 mice, were tested to determine the acute toxicity. The test compound was orally administered in a dosage indicated in Table 3a in the form suspended in 5% gum arabic liquor. The determination was conducted 7 days after the administration. Further, the LD50 values were calculated according to the method of Lichfield-Wilcoxon.

Carragheenin foot edema = test: Carragheenin foot edema; format: in vivo, rats (male, Wister type); conditions: 100 mg/Kg oral, 1 h before carragheenin, foot volume 3 h after injection; for inhibition in vivo at 100 mg/kg: Rattus norvegicus, read-out: Anti-Inflammatory Effect Control Ratio, Carragheenin Foot Edema
Experimental: a. Carragheenin food edema
The test was conducted according to the method of C. […] Groups of rats (male rats of the Wister type having a body weight of 140-170 g), each group consisting of 5 to 11 rats, were caused to abstain from food for 16 hours, and a 4% gum arabic suspension of a test compound was orally administered to the rats in an amount of 100 mg/Kg. of the test compounds. Immediately, rats were allowed to drink 5 ml of purified water. […] After 3 hours had passed from the injection, the volume of the right foot was measured again to determine the increase of the volume of the right foot. In control groups, only a 4% gum arabic liquor free of a test compound was orally administered, and subsequent procedures were conducted similarly to determine the increase of the volume of the right foot. The carragheenin foot edema control ratio was calculated according to the following formula: [formula] wherein C indicates the foot volume increase in the control group and D indicates the foot volume increase in the test compound-administered group.

inflammatory pain = test: Analgesic effect on inflammatory pain (modified Randall and Selitto); format: in vivo, rats (male, Wister type); conditions: 100 mg/Kg oral, 1 hour before carragheenin; pain measured 3 hours after injection
Experimental: Groups of male rats of the Wister type having a body weight of about 150 g were tested, each group consisting of 5 rats. The rats were caused to abstain from food overnight, and 0.05 ml of a 1% carragheenin solution was hypodermically injected into the right hind leg of each rat. […] The test compound was orally administered in a dosage of 100 mg/Kg 1 hour before the injection of carragheenin. [formula]

Ultraviolet erythema = test: Ultraviolet erythema; format: in vivo, guinea pigs (male, Hartley type); conditions: 10 mg/Kg oral, 1 h before irradiation, read 3 h after irradiation; for inhibition in vivo at 10 mg/kg: Cavia porcellus, light or radiation study, read-out: Anti-Inflammatory Effect Control Ratio, Ultraviolet Erythema
Experimental: The test was conducted according to a modification of the method of C. […] Groups of guinea pigs (male guinea pigs of the Hartley type having a body weight of 300 to 450 g), each group consisting of 5 to 10 guinea pigs, were employed for the test. Hairs were removed from backs of the guinea pigs by an electric hair-clipper and a depilatory agent. The guinea pigs were caused to abstain from food for 18 to 19 hours, and a test compound was orally administered in an amount of 10 mg/Kg in the form suspended in a 4% gum arabic liquor. In the case of control groups, only a 4% gum arabic liquor was administered. An adhesive plaster according to the Japanese pharmacopoeia, on which three small holes having a diameter of 5 mm were opened, was applied to the hair-removed portion of the back. […] When 3 hours had passed from the irradiation, the degree of the formation of erythema was determined. One point was given to the guinea pig on which a definite round erythema was formed, a point of 0.5 was given to the guinea pig on which formation of erythema was observed but its contour was not definite, and a point of 0 was given to the guinea pig on which no erythema was formed. Total points were calculated in both the test compound-administered group and the control group, and the control ratio was calculated from these total points. [formula]

Adjuvant arthritis = test: Adjuvant arthritis; format: in vivo, rats (female, Wister type); conditions: 9 mg/Kg per day oral for 25 days, foot volume on 23rd day from adjuvant injection; for inhibition in vivo at 9 mg/kg: Rattus norvegicus, 552 h, read-out: Anti-Inflammatory Effect Control Ratio, Adjuvant Arthritis
Experimental: With respect to the foregoing compounds, anti-inflammatory effects against carragheenin foot edema, ultraviolet erythema and adjuvant arthritis were tested by using rate according to the following methods to obtain results shown below.
The test was conducted according to a modification of the method of B. B. Newbould (Brit. J. Pharmacol., 21, 127 (1963)). Groups of female rats of the Wister type having a body weight of 180 - 240 g, each group consisting of 4 to 8 rats, were tested. 0.05 ml of an adjuvant (formed by suspending 5 mg of dead tuberculous bacillus, Aoyama B strain, in 1 ml of fluid paraffin according to the Japanese pharmacopoeia) was hypodermically injected in the right foot heel of each rat. A test compound was orally administered in a dosage of 9 mg/Kg per day in the form suspended in a 5% gum arabic liquor continuously for 25 days from one day before the injection of the adjuvant. In the case of the control group, only a 5% gum arabic liquor was continuously administered in the same manner. The volume of the right foot was measured 1 day before the injection of the adjuvant and on the 23rd day from the injection of the adjuvant with respect to each group. Thus, the increase of the foot volume was calculated in either the test compound-administered group or the control group, and the ratio of control of the adjuvant arthritis was calculated according to the following formula: [formula] in which C is the increase of the volume of the right foot in the control group and D indicates the increase of the volume of the right foot in the test compound-administered rat group.

in vivo [1] = conditions: rat, po
in vivo [2] = conditions: mouse, in vivo, po
Experimental: as §1, §2

Structure (SMILES) | Number of Dead Mice/Number of Mice Tested (male mice; 1 g/kg oral) | Number of Dead Mice/Number of Mice Tested (male mice; 2 g/kg oral) | Number of Dead Mice/Number of Mice Tested (male mice; 3 g/kg oral) | inhibition in vivo at 100 mg/kg (Carragheenin foot edema) [%] | Analgesic Coefficient (inflammatory pain) | inhibition in vivo at 10 mg/kg (Ultraviolet erythema) [%] | Anti-Inflammatory Effect Control Ratio, Adjuvant Arthritis (Adjuvant arthritis) [%] | Anti-Inflammatory Effect Control Ratio, Carragheenin Foot Edema (Carragheenin foot edema) [%] | Anti-Inflammatory Effect Control Ratio, Ultraviolet Erythema (Ultraviolet erythema) [%] | inhibition in vivo at 9 mg/kg (Adjuvant arthritis) [%] | LD50 (in vivo [1]) [mg/kg] | LD50 at 168 h (in vivo [2]) [mg/kg] | Number of Dead Mice/Number of Mice Tested (male mice; 4 g/kg oral)
CCCCCCc1ccc2ccccc2c1Nc1ccccc1C(=O)O [2 Hexyl-, N-(2-n-hexyl-naphthyl-1)anthranilic acid] | 0 /10 | 0 /10 | 0 /10 | 8.5 | 1.28 | 44 |  |  |  |  |  |  | 
CCCCc1ccc(Nc2ccccc2C(=O)O)c2ccccc12 [4 Butyl-] | 0 /10 | 0 /10 | 5 /10 |  | 1.41 |  | 1.3 | 16.8 | 22.3 |  |  |  | 
CCc1ccc(Nc2ccccc2C(=O)O)c2ccccc12 [4 Ethyl-] | 0 /10 | 2 /10 | 4 /10 |  | 1.20 |  | 21.5 | 46.2 | 60.0 |  |  |  | 
CC(C)Cc1ccc(Nc2ccccc2C(=O)O)c2ccccc12 [4 iso Butyl-, N-(4-isobutyl-naphthyl-1)anthranilic acid] | 0 /10 | 0 /10 | 2 /10 |  | 1.37 |  | 31.0 | 41.9 | 43.8 |  |  |  | 
O=C(O)c1ccccc1Nc1ccc(Cl)c2ccccc12 [Compound 1, n-(4-chloro-1-naphthyl)anthranilic acid] | 0 / 5 | 0 / 5 | 0 / 5 | 25.7 | 1.36 | 38 |  |  |  | 7.5 | > 10000 | > 12000 | 3 / 5
O=C(O)c1ccccc1Nc1c(Cl)cc(Cl)c2ccccc12 [Compound 2, N-(2,4-dichloro-1-naphthyl)anthranilic acid] | 0 / 5 | 0 / 5 | 0 / 5 | 27 | 1.70 | 68.9 |  |  |  | 53.5 | 8500 | > 12000 | 0 / 5
O=C(O)c1ccccc1Nc1c(Cl)ccc2ccccc12 [Compound 3, N-(2-chloro-1-naphthyl)anthranilic acid] | 0 / 5 | 2 / 5 | 4 / 5 | 46.6 | 1.62 | 66.7 |  |  |  | 36.9 |  |  | 5 / 5
O=C(O)c1ccccc1Nc1c(F)ccc2ccccc12 [Compound 4, N-(2-fluoro-1-naphthyl)anthranilic acid] | 0 / 5 | 0 / 5 | 5 / 5 | 27.6 | 1.60 | 48.7 |  |  |  | 50 |  |  | 5 / 5
O=C(O)c1ccccc1Nc1cc(Cl)cc2ccccc12 [Compound 5, N-(3-chloro-1-naphthyl)anthranilic acid] | 0 / 5 | 0 / 5 | 4 / 5 | 31.4 | 1.31 | 40 |  |  |  | 41.4 |  |  | 5 / 5
Cc1cc(Nc2ccccc2C(=O)O)c2ccccc2c1C [Compound 6, N-(3,4-dimethyl-1-naphthyl)anthranilic acid] | 0 / 5 | 2 / 5 | 5 / 5 | 47.1 | 1.28 | 17.1 |  |  |  | 17.2 |  |  | 5 / 5
O=C(O)c1ccccc1Nc1cc(F)cc2ccccc12 [Compound 7, N-(3-fluoro-1-naphthyl)anthranilic acid] |  | 1 / 5 | 5 / 5 | 35.4 | 1.70 | 44 |  |  |  | 36.1 |  |  | 
O=C(O)c1ccccc1Nc1c(Cl)cc(Br)c2ccccc12 [Compound 8, N-(2-chloro-4-bromo-1-naphthyl)anthranilic acid] | 0 / 5 | 0 / 5 | 0 / 5 | 27.6 | 1.72 | 77.3 |  |  |  | 31.2 |  |  | 4 / 5
Cc1cc(Nc2ccccc2C(=O)O)c2ccccc2c1 [Compound 9, N-(3-methyl-1-naphthyl)anthranilic acid] | 0 / 5 | 3 / 5 | 5 / 5 | 44.3 |  | 46.3 |  |  |  |  |  |  | 
Cc1cccc(Nc2ccccc2C(=O)O)c1C [Compound M, mefenamic acid, reference compound] | 5 / 5 | 5 / 5 |  | 50.6 | 1.50 | 38.1 |  |  |  | 48.1 |  |  | 
CCCCc1ccc2ccccc2c1Nc1ccccc1C(=O)O [N-(2-butyl-naphthyl-1-anthranilic acid] | 0 /10 | 0 /10 | 0 /10 | 31 | 1.38 | 50.3 |  |  |  | 26.2 |  |  | 
